# Source: ChEMBL document CHEMBL3885881, “DrugMatrix”
# Species on record: Rattus norvegicus
# Assay: DrugMatrix - Regimen: Daily Repeat
# Type: toxicity, organism-based, Sprague-Dawley
# Parameters: regimen Daily Repeat, gender Male, age 6-8 weeks
# Conditions: in vivo, po, route oral GAVAGE, […]
# [1] = 66 mg/kg, 120 h, tissue Blood, dose level High, time 5 day
# [2] = 66 mg/kg, 120 h, tissue Plasma, dose level High, time 5 day
# [3] = 72 h, tissue Blood, dose 6.6 mg/Kg, dose level Low, time 3 day
# [4] = 72 h, tissue Plasma, dose 6.6 mg/Kg, dose level Low, time 3 day
# [5] = 120 h, tissue Blood, dose 6.6 mg/Kg, dose level Low, time 5 day
# [6] = 120 h, tissue Plasma, dose 6.6 mg/Kg, dose level Low, time 5 day
substance,measurement,setting,value
CADMIUM DICHLORIDE,NEUTROPHIL,[1],11%
same,NUCLEATED RED BLOOD CELLS,[1],0 /100WBC
same,PLATELET COUNT,[1],1357 x10E3/uL
same,ALANINE AMINOTRANSFERASE,[2],63 u/L
same,ALBUMIN,[2],4.1 G/DL
same,ALKALINE PHOSPHATASE,[2],217.5 u/L
same,ASPARTATE AMINOTRANSFERASE,[2],122 u/L
same,BLOOD UREA NITROGEN,[2],14 mg/dL
same,CARBON DIOXIDE,[2],18.5 mmol/L
same,CHLORIDE,[2],112 MEQ/L
same,CHOLESTEROL,[2],36 mg/dL
same,CREATINE PHOSPHOKINASE,[2],975 u/L
same,CREATININE,[2],0.2 mg/dL
same,GLUCOSE,[2],189 mg/dL
same,LACTATE DEHYDROGENASE,[2],198.5 u/L
same,LIPASE,[2],11.5 u/L
same,POTASSIUM,[2],6.8 MEQ/L
same,TOTAL BILIRUBIN,[2],0.1 mg/dL
same,TOTAL PROTEIN,[2],5.5 G/DL
same,URIC ACID,[2],2.35 mg/dL
same,ABSOLUTE BASOPHIL,[3],0 CELLS/uL
same,ABSOLUTE EOSINOPHIL,[3],0 CELLS/uL
same,ABSOLUTE LYMPHOCYTE,[3],17172.67 CELLS/uL
same,ABSOLUTE MONOCYTE,[3],193.33 CELLS/uL
same,ABSOLUTE SEGMENTED NEUTROPHIL,[3],1767.33 CELLS/uL
same,BASOPHIL,[3],0%
same,EOSINOPHIL,[3],0%
same,ERYTHROCYTE COUNT,[3],5.25 x10E6/uL
same,HEMATOCRIT,[3],32.93%
same,HEMOGLOBIN,[3],13.07 G/DL
same,LEUKOCYTE COUNT,[3],19.13 x10E3/uL
same,MEAN CORPUSCULAR HEMOGLOBIN CONCENTRATION,[3],39.7 G/DL
same,MONOCYTE,[3],1%
same,NUCLEATED RED BLOOD CELLS,[3],0 /100WBC
same,PLATELET COUNT,[3],1216 x10E3/uL
same,ALANINE AMINOTRANSFERASE,[4],81 u/L
same,ALBUMIN,[4],4 G/DL
same,ALKALINE PHOSPHATASE,[4],508.5 u/L
same,ASPARTATE AMINOTRANSFERASE,[4],91.67 u/L
same,BLOOD UREA NITROGEN,[4],11.67 mg/dL
same,CARBON DIOXIDE,[4],26 mmol/L
same,CHOLESTEROL,[4],77.33 mg/dL
same,CREATINE PHOSPHOKINASE,[4],283.33 u/L
same,CREATININE,[4],0.19 mg/dL
same,GLUCOSE,[4],152.67 mg/dL
same,LACTATE DEHYDROGENASE,[4],195 u/L
same,LIPASE,[4],12.33 u/L
same,PHOSPHORUS,[4],11.57 mg/dL
same,POTASSIUM,[4],6.8 MEQ/L
same,TOTAL BILIRUBIN,[4],0.2 mg/dL
same,TOTAL PROTEIN,[4],5.57 G/DL
same,URIC ACID,[4],1.3 mg/dL
same,ABSOLUTE BASOPHIL,[5],0 CELLS/uL
same,ABSOLUTE EOSINOPHIL,[5],0 CELLS/uL
same,ABSOLUTE LYMPHOCYTE,[5],4729 CELLS/uL
same,ABSOLUTE MONOCYTE,[5],0 CELLS/uL
same,ABSOLUTE SEGMENTED NEUTROPHIL,[5],237.67 CELLS/uL
same,BASOPHIL,[5],0%
same,EOSINOPHIL,[5],0%
same,ERYTHROCYTE COUNT,[5],5.13 x10E6/uL
same,HEMATOCRIT,[5],30.77%
same,HEMOGLOBIN,[5],12.03 G/DL
same,LEUKOCYTE COUNT,[5],4.97 x10E3/uL
same,LYMPHOCYTE,[5],94.67%
same,MEAN CORPUSCULAR HEMOGLOBIN,[5],23.43 pg
same,MEAN CORPUSCULAR HEMOGLOBIN CONCENTRATION,[5],39.13 G/DL
same,MONOCYTE,[5],0%
same,NEUTROPHIL,[5],5.33%
same,NUCLEATED RED BLOOD CELLS,[5],0 /100WBC
same,PLATELET COUNT,[5],996.33 x10E3/uL
same,ALANINE AMINOTRANSFERASE,[6],78.67 u/L
same,ALKALINE PHOSPHATASE,[6],485.67 u/L
same,ASPARTATE AMINOTRANSFERASE,[6],93 u/L
same,BLOOD UREA NITROGEN,[6],12.67 mg/dL
same,CARBON DIOXIDE,[6],30 mmol/L
same,CHOLESTEROL,[6],72.33 mg/dL
same,CREATINE PHOSPHOKINASE,[6],141.33 u/L
same,CREATININE,[6],0.16 mg/dL
same,GLUCOSE,[6],141.33 mg/dL
same,LACTATE DEHYDROGENASE,[6],102.33 u/L
same,LIPASE,[6],11 u/L
same,POTASSIUM,[6],6.24 MEQ/L
same,SODIUM,[6],149.5 MEQ/L
same,TOTAL BILIRUBIN,[6],0.2 mg/dL
same,URIC ACID,[6],0.97 mg/dL
